Results from US20230295119A1, “SUBSTITUTED PYRIDINES FOR THE TREATMENT OF INFLAMMATORY DISEASES” (GOSSAMER BIO SERVICES, INC., priority 2020, published 2023).

Tests used:
TYK2 JH2 domain = TYK2 JH2 domain (Homo sapiens (Human), UniProt P29597); experiment: TYK2 JH2 NanoBRET assay; format: binding; settings: Table 20, read-out: TYK2 IC50
Method in brief: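 Tracer displacement measured by BRET ratio (acceptor over donor) in live HEK293T cells transfected with a NanoLuc-tagged TYK2 JH2 construct; cells co-exposed to test compound and 0.5 µM final K10 tracer for 2 h before substrate/extracellular inhibitor addition.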

human JAK2 = human JAK2 (Homo sapiens (Human), UniProt O60674); experiment: JAK2 TR-FRET kinase assay; format: biochemical; settings: JAK2 0.025 nM
human JAK1 = human JAK1 (Homo sapiens (Human), UniProt P23458); experiment: JAK1 TR-FRET kinase assay; format: biochemical; settings: TR-FRET, JAK1 2.5 nM
human JAK3 = human JAK3 (Homo sapiens (Human), UniProt P52333); experiment: JAK3 TR-FRET kinase assay; format: biochemical; settings: JAK3 0.0125 nM
Chain of human JAK3 (P52333 whole entry): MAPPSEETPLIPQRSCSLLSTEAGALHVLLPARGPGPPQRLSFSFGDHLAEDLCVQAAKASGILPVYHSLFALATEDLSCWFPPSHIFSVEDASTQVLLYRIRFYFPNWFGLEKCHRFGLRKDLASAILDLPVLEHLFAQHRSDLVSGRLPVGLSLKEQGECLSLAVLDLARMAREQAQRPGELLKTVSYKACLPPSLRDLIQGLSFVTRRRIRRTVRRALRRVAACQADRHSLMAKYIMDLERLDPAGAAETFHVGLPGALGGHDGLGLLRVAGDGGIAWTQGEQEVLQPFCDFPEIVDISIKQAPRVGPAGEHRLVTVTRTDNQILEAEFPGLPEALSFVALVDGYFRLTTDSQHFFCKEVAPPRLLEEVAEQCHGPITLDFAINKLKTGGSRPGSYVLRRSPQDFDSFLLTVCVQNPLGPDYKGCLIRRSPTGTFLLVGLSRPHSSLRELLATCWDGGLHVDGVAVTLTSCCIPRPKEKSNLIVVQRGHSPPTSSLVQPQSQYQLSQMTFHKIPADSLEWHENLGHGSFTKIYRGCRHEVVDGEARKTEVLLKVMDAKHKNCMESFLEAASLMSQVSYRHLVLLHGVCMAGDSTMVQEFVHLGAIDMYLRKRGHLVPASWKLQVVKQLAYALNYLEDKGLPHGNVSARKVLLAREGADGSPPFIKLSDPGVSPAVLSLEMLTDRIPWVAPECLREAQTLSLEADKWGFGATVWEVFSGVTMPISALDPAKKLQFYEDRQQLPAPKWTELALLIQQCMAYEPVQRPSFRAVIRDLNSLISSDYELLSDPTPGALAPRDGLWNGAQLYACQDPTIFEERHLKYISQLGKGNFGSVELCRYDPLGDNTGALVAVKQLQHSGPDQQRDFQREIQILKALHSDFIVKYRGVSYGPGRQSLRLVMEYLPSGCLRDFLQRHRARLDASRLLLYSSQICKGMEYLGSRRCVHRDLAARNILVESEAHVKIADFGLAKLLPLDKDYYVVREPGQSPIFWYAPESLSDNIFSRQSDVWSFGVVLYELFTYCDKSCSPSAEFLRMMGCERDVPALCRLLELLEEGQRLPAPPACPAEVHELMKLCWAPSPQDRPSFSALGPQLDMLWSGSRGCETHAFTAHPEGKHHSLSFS

Chain of TYK2 JH2 domain (P29597 589-875): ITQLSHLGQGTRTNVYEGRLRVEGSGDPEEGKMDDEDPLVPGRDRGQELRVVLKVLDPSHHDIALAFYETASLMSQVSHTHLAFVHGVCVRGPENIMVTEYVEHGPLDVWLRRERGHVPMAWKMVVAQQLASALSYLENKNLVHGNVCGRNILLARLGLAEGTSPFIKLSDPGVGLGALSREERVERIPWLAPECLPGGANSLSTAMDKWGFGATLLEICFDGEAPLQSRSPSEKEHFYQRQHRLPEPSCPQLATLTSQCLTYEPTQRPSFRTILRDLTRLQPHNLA
Chain of human JAK2 (O60674 whole entry): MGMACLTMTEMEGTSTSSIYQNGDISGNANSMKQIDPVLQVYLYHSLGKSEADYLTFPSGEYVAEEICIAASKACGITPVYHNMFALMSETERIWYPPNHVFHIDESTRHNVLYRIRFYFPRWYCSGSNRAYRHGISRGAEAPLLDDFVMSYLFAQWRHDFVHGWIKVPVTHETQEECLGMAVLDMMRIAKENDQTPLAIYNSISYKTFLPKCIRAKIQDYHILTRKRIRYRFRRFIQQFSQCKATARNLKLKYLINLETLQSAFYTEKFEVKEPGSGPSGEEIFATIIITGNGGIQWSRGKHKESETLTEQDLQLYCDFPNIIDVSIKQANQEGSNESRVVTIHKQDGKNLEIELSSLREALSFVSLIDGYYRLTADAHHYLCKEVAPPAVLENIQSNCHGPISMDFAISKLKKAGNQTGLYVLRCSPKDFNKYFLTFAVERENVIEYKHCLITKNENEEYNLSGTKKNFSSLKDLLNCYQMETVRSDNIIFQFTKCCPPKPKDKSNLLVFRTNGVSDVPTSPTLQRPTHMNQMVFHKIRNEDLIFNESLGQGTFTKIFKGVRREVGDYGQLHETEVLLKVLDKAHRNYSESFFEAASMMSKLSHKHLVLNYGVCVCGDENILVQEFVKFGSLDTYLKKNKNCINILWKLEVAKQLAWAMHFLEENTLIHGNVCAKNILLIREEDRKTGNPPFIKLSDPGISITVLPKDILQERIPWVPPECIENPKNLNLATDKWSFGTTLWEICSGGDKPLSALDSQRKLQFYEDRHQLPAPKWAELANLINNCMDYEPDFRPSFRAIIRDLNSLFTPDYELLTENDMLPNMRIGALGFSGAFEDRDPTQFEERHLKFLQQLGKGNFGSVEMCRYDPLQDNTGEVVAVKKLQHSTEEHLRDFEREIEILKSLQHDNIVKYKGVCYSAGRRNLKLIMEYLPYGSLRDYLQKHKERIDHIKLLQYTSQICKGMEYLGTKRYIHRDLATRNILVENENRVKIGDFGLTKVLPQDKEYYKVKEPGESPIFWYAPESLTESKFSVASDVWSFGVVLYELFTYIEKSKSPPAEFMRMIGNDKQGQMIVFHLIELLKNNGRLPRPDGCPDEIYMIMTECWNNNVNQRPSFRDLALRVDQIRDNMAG
Chain of human JAK1 (P23458 whole entry): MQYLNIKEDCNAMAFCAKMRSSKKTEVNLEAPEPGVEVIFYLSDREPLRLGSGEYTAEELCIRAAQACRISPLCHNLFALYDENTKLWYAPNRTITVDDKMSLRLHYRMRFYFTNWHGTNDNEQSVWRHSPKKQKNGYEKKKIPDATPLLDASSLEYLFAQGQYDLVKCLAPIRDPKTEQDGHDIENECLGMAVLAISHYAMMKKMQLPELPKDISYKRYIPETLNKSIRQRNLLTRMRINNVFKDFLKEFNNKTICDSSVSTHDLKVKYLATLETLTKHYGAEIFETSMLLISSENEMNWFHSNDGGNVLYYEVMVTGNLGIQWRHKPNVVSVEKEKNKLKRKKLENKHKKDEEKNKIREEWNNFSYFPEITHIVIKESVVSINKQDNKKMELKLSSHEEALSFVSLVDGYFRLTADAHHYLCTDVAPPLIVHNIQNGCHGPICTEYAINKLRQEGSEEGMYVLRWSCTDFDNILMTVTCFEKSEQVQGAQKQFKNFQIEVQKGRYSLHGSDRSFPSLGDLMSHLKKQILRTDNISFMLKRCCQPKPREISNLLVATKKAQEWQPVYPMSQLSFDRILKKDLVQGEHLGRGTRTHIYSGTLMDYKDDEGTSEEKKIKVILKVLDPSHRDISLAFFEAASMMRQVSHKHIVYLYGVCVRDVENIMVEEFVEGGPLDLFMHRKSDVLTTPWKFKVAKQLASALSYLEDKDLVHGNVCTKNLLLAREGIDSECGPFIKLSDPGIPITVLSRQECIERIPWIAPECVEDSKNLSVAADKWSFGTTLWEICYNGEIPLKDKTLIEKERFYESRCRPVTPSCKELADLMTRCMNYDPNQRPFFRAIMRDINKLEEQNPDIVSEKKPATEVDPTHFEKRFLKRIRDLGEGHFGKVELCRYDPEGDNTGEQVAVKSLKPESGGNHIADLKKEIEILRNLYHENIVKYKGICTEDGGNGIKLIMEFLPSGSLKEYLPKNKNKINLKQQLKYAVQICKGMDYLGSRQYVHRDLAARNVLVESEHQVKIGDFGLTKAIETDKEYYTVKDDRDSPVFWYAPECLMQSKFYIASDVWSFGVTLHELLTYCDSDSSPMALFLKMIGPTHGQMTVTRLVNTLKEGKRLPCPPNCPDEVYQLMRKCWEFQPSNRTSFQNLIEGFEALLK

| IC50 (TYK2 JH2 domain) | IC50 (human JAK2) | IC50 (human JAK1) | IC50 (human JAK3) | SMILES |
| --- | --- | --- | --- | --- |
| 5 to 50 nM | ≥ 500 nM | ≥ 500 nM | ≥ 500 nM | CCC(=O)c1cnc(Nc2ccn(CCN3CCCC3)n2)cc1Nc1cccc(-c2ncn(C)n2)c1OC [Compound 21C] |
| 5 to 50 nM | ≥ 500 nM | ≥ 500 nM | ≥ 500 nM | CCC(=O)c1cnc(Nc2ccn([C@H]3C[C@H](C#N)C3)n2)cc1Nc1cccc(-c2ncn(C)n2)c1OC [Compound 210] |
| < 5 nM | ≥ 500 nM | ≥ 500 nM | ≥ 500 nM | CCC(=O)c1cnc(Nc2ccc(O[C@@H]3CCN(C)C3)cn2)cc1Nc1cc(F)cc(-c2ncn(C)n2)c1OC [Compound 18WWW] |
| 5 to 50 nM | ≥ 500 nM | ≥ 500 nM | ≥ 500 nM | COc1c(-c2ncn(C)n2)ccnc1Nc1cc(Nc2ccc(-c3ncn(C)n3)cn2)ncc1C(=O)C1CC1 [Compound 15O] |
| 5 to 50 nM | ≥ 500 nM | ≥ 500 nM | ≥ 500 nM | CCC(=O)c1cnc(Nc2ccc(-n3nc(C)ccc3=O)cn2)cc1Nc1cccc(-c2ncn(C)n2)c1OC [Compound 15Z] |
| 5 to 50 nM | ≥ 500 nM | ≥ 500 nM | 50 to 500 nM | CCC(=O)c1cnc(Nc2ccn(CC3COC3)n2)cc1Nc1cccc(-c2ncn(C)n2)c1OC [Compound 21R] |
| 5 to 50 nM | ≥ 500 nM | ≥ 500 nM | ≥ 500 nM | CCC(=O)c1cnc(Nc2cnc(O[C@@H]3CCN(CC(F)(F)F)C3)cn2)cc1Nc1cccc(-c2ncn(C)n2)c1OC [Compound 18LLL] |
| 5 to 50 nM | ≥ 500 nM | ≥ 500 nM | ≥ 500 nM | CCC(=O)c1cnc(Nc2cnc(OCCO)cn2)cc1Nc1cccc(-c2ncn(C)n2)c1OC [Compound 18P] |
| < 5 nM | 50 to 500 nM | ≥ 500 nM | 50 to 500 nM | CCC(=O)c1cnc(Nc2ccc(-c3cccn(C)c3=O)cn2)cc1Nc1cccc(-c2ncn(C)n2)c1OC [Compound 16A, 6′-((4-((2-methoxy-3-(1-methyl-1H-1,2,4-triazol-3-yl)phenyl)amino)-5-propionylpyridin-2-yl)amino)-1-methyl-[3,3′-bipyridin]-2(1H)-one] |
| < 5 nM | ≥ 500 nM | ≥ 500 nM | ≥ 500 nM | CCC(=O)c1cnc(Nc2cnc(OCCNC)cn2)cc1Nc1cccc(-c2ncn(C)n2)c1OC [Compound 18NN] |
| 5 to 50 nM | ≥ 500 nM | ≥ 500 nM | ≥ 500 nM | COc1c(Nc2cc(Nc3ccc(OC[C@H](O)CO)cn3)ncc2C(=O)C2CC2)cccc1-c1ncn(C)n1 [Compound 18J] |
| < 5 nM | ≥ 500 nM | ≥ 500 nM | ≥ 500 nM | COc1c(Nc2cc(Nc3ccc(OCCCO)cn3)ncc2C(=O)C2CC2)cccc1-c1ncn(C)n1 [Compound 18C] |
| 5 to 50 nM | ≥ 500 nM | ≥ 500 nM | ≥ 500 nM | CCC(=O)c1cnc(Nc2ccn([C@H]3C[C@@H](OC)C3)n2)cc1Nc1cccc(-c2ncn(C)n2)c1OC [Compound 21A, 1-(4-((2-methoxy-3-(1-methyl-1H-1,2,4-triazol-3-yl)phenyl)amino)-6-((1-(3-methoxycyclobutyl)-1H-pyrazol-3-yl)amino)pyridin-3-yl)propan-1-one] |
| 5 to 50 nM | ≥ 500 nM | ≥ 500 nM | ≥ 500 nM | CCC(=O)c1cnc(Nc2ccn(CCOC)n2)cc1Nc1cccc(-c2ncn(C)n2)c1OC [Compound 21B] |
| 5 to 50 nM | ≥ 500 nM | ≥ 500 nM | ≥ 500 nM | CCC(=O)c1cnc(Nc2cnc(C(F)(F)CN3CCCC3)cn2)cc1Nc1cccc(-c2ncn(C)n2)c1OC [Compound 19E] |
| 5 to 50 nM | ≥ 500 nM | ≥ 500 nM | ≥ 500 nM | CCC(=O)c1cnc(Nc2ccn(CC3CCOC3)n2)cc1Nc1cccc(-c2ncn(C)n2)c1OC (centres unmarked) [Compound 21T] |

The remaining lines, values behind:

| SMILES | IC50 (TYK2 JH2 domain) | IC50 (human JAK2) | IC50 (human JAK1) | IC50 (human JAK3) |
| --- | --- | --- | --- | --- |
| CCC(=O)c1cnc(Nc2ncc(CNC)cc2F)cc1Nc1cccc(-c2ncn(C)n2)c1OC [Compound 9EEEE] | 5 to 50 nM | ≥ 500 nM | ≥ 500 nM | ≥ 500 nM |
| CCC(=O)c1cnc(Nc2ccc(CN3CCCCC3)cn2)cc1Nc1cccc(-c2ncn(C)n2)c1OC [Compound 9RR] | < 5 nM | ≥ 500 nM | ≥ 500 nM | ≥ 500 nM |
| CCC(=O)c1cnc(Nc2cc(C(N)=O)ncn2)cc1Nc1cccc(-c2ncn(C)n2)c1OC [Compound 8M] | < 5 nM | ≥ 500 nM | ≥ 500 nM | ≥ 500 nM |
| CCC(=O)c1cnc(Nc2ccc(CNC)cn2)cc1Nc1cccc(-c2ncn(C)n2)c1OC [Compound 9C] | < 5 nM | ≥ 500 nM | ≥ 500 nM | ≥ 500 nM |
| CCC(=O)c1cnc(Nc2ccc(P(C)(C)=O)cn2)cc1Nc1cccc(-c2ncn(C)n2)c1OC [Compound 15DD] | 5 to 50 nM | ≥ 500 nM | ≥ 500 nM | ≥ 500 nM |
| CCC(=O)c1cnc(Nc2ccc(S(=O)(=O)C3CC3)cn2)cc1Nc1cccc(-c2ncn(C)n2)c1OC [Compound 13H] | < 5 nM | 50 to 500 nM | ≥ 500 nM | 50 to 500 nM |
| CCC(=O)c1cnc(Nc2ccc(CN(C)C)cn2)cc1Nc1cccc(-c2ncn(C)n2)c1OC [Compound 9A, 1-(6-((5-((dimethylamino)methyl)pyridin-2-yl)amino)-4-((2-methoxy-3-(1-methyl-1H-1,2,4-triazol-3-yl)phenyl)amino)pyridin-3-yl)propan-1-one] | < 5 nM | ≥ 500 nM | ≥ 500 nM | ≥ 500 nM |
| CCC(=O)c1cnc(Nc2ccc(S(C)(=N)=O)cn2)cc1Nc1nccc(-c2ncn(C)n2)c1OC (centres unmarked) [Compound 13L] | ≥ 500 nM | ≥ 500 nM | ≥ 500 nM | ≥ 500 nM |
| CCC(=O)c1cnc(Nc2ccc(-c3ncn(C)n3)cn2)cc1Nc1cccc(-c2ncn(C)n2)c1OC [Compound 15C] | < 5 nM | ≥ 500 nM | ≥ 500 nM | ≥ 500 nM |
| CCC(=O)c1cnc(Nc2cnc(CN3CCCC3)cn2)cc1Nc1cccc(-c2ncn(C)n2)c1OC [Compound 9AAAA] | < 5 nM | ≥ 500 nM | ≥ 500 nM | ≥ 500 nM |
| CCC(=O)c1cnc(Nc2ccc(-n3cccn3)cn2)cc1Nc1cccc(-c2ncn(C)n2)c1OC [Compound 15H] | < 5 nM | ≥ 500 nM | ≥ 500 nM | ≥ 500 nM |
| CCC(=O)c1cnc(Nc2cc(CCN(C)C)ncn2)cc1Nc1cccc(-c2ncn(C)n2)c1OC [Compound 11F] | < 5 nM | ≥ 500 nM | ≥ 500 nM | ≥ 500 nM |
| CCC(=O)c1cnc(Nc2ccc(CN(C)CC(F)F)cn2)cc1Nc1cccc(-c2ncn(C)n2)c1OC [Compound 9Y] | 5 to 50 nM | ≥ 500 nM | ≥ 500 nM | ≥ 500 nM |
| CCC(=O)c1cnc(Nc2ccc(S(C)(=O)=O)cn2)cc1Nc1cccc(-c2ncn(C)n2)c1OC [Compound 12A, 1-(4-((2-methoxy-3-(1-methyl-1H-1,2,4-triazol-3-yl)phenyl)amino)-6-((5-(methylsulfonyl)pyridin-2-yl)amino)pyridin-3-yl)propan-1-one] | < 5 nM | ≥ 500 nM | ≥ 500 nM | ≥ 500 nM |
| CCC(=O)c1cnc(Nc2ccc(CS(C)(=N)=O)cn2)cc1Nc1cccc(-c2ncn(C)n2)c1OC (centres unmarked) [Compound 13F] | 5 to 50 nM | ≥ 500 nM | ≥ 500 nM | ≥ 500 nM |
| CCC(=O)c1cnc(Nc2ccc(S(=O)(=O)C3CC3)cn2)cc1Nc1nccc(-c2ncn(C)n2)c1OC [Compound 13K] | 5 to 50 nM | 50 to 500 nM | ≥ 500 nM | 50 to 500 nM |
| CCC(=O)c1cnc(Nc2cccc(CN3CCCC3)n2)cc1Nc1cccc(-c2ncn(C)n2)c1OC [Compound 9FFFF] | 5 to 50 nM | ≥ 500 nM | ≥ 500 nM | ≥ 500 nM |
| CCC(=O)c1cnc(Nc2ccc(CN3CC4(CCO4)C3)cn2)cc1Nc1cccc(-c2ncn(C)n2)c1OC [Compound 9ZZ] | < 5 nM | ≥ 500 nM | ≥ 500 nM | ≥ 500 nM |
| CCC(=O)c1cnc(Nc2cnc(CCN(C)C)cn2)cc1Nc1cccc(-c2ncn(C)n2)c1OC [Compound 11I] | 5 to 50 nM | ≥ 500 nM | ≥ 500 nM | ≥ 500 nM |
